Source: US20050250819A1 (priority 2004, published 2005)

Legend:
[1] = test system: Type III-dependent secretion of ExoU by P. aeruginosa PA103; assay: Tertiary assay: Type III-dependent secretion of ExoU by P. aeruginosa PA103; assay type: cell-based; settings: Pseudomonas aeruginosa, ExoU secreted into extracellular medium
Text: Tertiary assay: inhibition of Type III protein secretion of effectors from a Pseudomonas aeruginosa system. Type III protein secretion is used by P. aeruginosa to secrete several essential virulence determinants. One effector of the type III protein secretion system of P. aeruginosa PA103 is the virulence determinants ExoU.
The amount of Type III-dependent secretion of ExoU by P. aeruginosa PA103 can be determined in a cell-based assay by quantification of the 73.9 kDa ExoU protein secreted into the extracellular medium. Such quantitation can be achieved by growing strain PA103 in a deferrated medium in the presence of nitrilotriacetic acid (an inducer of Type III protein secretion in P. aeruginosa) and either in the presence or absence of putative inhibitors. After a prolonged growth period, the cells are sedimented and the supernatants concentrated by ammonium sulfate precipitation. The proteins in the resuspended pellets are separated by electrophoresis on SDS-polyacrylamide gels. After staining gels with Colloidal Blue™, the 73.9 kDa ExoU band is quantitated by scanning through an imager. The effects of inhibitors on the intensity of the ExoU band may be measured relative to that of untreated controls.

[2] = test system: Type III protein secretion of the chimeric SopE‘-’Bla polypeptide (SPI1 type III protein secretion system); assay: Primary assay: Type III protein secretion of the chimeric SopE'-'Bla polypeptide by Salmonella enterica; assay type: cell-based; settings: read-out: SopE IC50(μM)
Text: Primary assay: Type III protein secretion of the chimeric SopE‘-’Bla polypeptide by Salmonella enterica. This procedure is a cell-based assay that measures the type III-dependent secretion by Salmonella enterica of a plasmid-encoded chimeric polypeptide whose synthesis can be regulated, and which is endowed with an enzymatic activity that can be monitored colorimetrically by hydrolysis of a substrate that is unable to penetrate into the bacterial cytoplasm within the time constraints of the reaction. Thus, the colormetric reaction is not influenced by SopE‘-’Bla polypeptide in the bacterial cytplasm. Instead, it effectively measures the amount of polypeptide that has been secreted from the S. enterica cytoplasm to the extracellular medium via type III system protein secretion.
The SopE‘-’Bla recombinant polypeptide consists of two functionally distinct domains spliced together. The N-terminus domain is encoded by a polynucleotide region specifying the signal for type III secretion of the SopE polypeptide of S. enterica, an effector of the SPI1 type III protein secretion system. The C-terminus domain of SopE‘-’Bla consists of a 263 amino acid peptide sequence that corresponds to the TEM-1 β-lactamase expressed by plasmid pBR322 but without its N-terminal signal sequence. The TEM-1 β-lactamase part of the SopE‘-’Bla chimeric polypeptide is used as a reporter enzyme. It is capable of hydrolyzing nitrocefin resulting in a product whose accumulation can be monitored by colorimetric detection. The secretion of the SopE‘-’Bla chimeric polypeptide from the cytoplasm to the extracellular medium is dependent on type III protein secretion.
For this procedure, cells grown under conditions known to favor a functional SPI1 secretion system are induced for expression of the SopE‘-’Bla protein and grown either in the presence or in the absence of putative inhibitors for determined time. Nitrocefin is then added to the various cultures and its hydrolysis are used for quantitation. An inhibitor of Type III protein secretion is generally a compound that reduces the signal of the enzymatic reaction by decreasing the amount of SopE‘-’Bla secreted into the extracellular medium.

Compound | IC50 [1] | IC50 [2]
O=C(N[C@@H](CSCc1ccccc1)C(=O)O)/C(=C\c1ccc(OCc2ccccc2)cc1)NC(=O)c1ccc(C(F)(F)F)cc1 [Compound 1, (R)-2-[3-(4-Benzyloxyphenyl)-2-(4-trifluoromethylbenzoylamino)acryloylamino]-3-benzylsulfanylpropionic acid] | 11.6 µM | –
O=C(N[C@H](CSCc1ccccc1)C(=O)O)/C(=C\c1ccc(-c2ccccc2)cc1)NC(=O)c1ccc(C(F)(F)F)cc1 [Compound 6, (S)-3-Benzylsulfanyl-2-[3-biphenyl-4-yl-2-(4-trifluoromethylbenzoylamino)-acryloylamino]propionic acid] | 47 µM | –
O=C(N[C@@H](CCSCc1ccccc1)C(=O)O)/C(=C\c1ccc(-c2ccccc2)cc1)NC(=O)c1ccc(C(F)(F)F)cc1 [Compound 7, (S)-4-Benzylsulfanyl-2-[3-biphenyl-4-yl-2-(4-trifluoromethylbenzoylamino)-acryloylamino]butyric acid] | 31 µM | –
O=C(N[C@@H](CSCc1ccccc1)C(=O)O)/C(=C\c1ccc(Oc2ccccc2)cc1)NC(=O)c1ccc(C(F)(F)F)cc1 [Compound 17, (R)-3-Benzylsulfanyl-2-[3-(4-phenoxyphenyl)-2-(4-trifluoromethylbenzoylamino)-acryloylamino]propionic acid] | 49 µM | –
O=C(N[C@@H](CSCc1ccccc1)C(=O)O)/C(=C\c1cccc(OCc2ccccc2)c1)NC(=O)c1ccc(C(F)(F)F)cc1 [Compound 18, (R)-2-[3-(3-Benzyloxyphenyl)-2-(4-trifluoromethylbenzoylamino)acryloylamino]-3-benzylsulfanylpropionic acid] | 57 µM | –
O=C(N[C@@H](CSCc1ccccc1)C(=O)O)/C(=C\c1ccc(Oc2ccccc2)cc1)NC(=O)c1ccc(Br)cc1 [Compound 20, (R)-3-Benzylsulfanyl-2-[2-(4-bromobenzoylamino)-3-(4-phenoxyphenyl)-acryloylamino]propionic acid] | 37 µM | –
O=C(N[C@@H](CSCc1ccccc1)C(=O)O)/C(=C\c1cccc(Oc2ccccc2)c1)NC(=O)c1ccc(I)cc1 [Compound 21, (R)-3-Benzylsulfanyl-2-[2-(4-iodobenzoylamino)-3-(3-phenoxyphenyl)-acryloylamino]propionic acid] | 69 µM | –
O=C(N[C@@H](CSCc1ccccc1)C(=O)O)/C(=C\c1ccc(OC(F)(F)F)cc1)NC(=O)c1ccc(I)cc1 [Compound 22, (R)-3-Benzylsulfanyl-2-[2-(4-iodobenzoylamino)-3-(4-trifluoromethoxyphenyl)-acryloylamino]propionic acid] | 47 µM | –
O=C(N[C@@H](COCc1ccccc1)C(=O)O)/C(=C\c1ccc(-c2ccccc2)cc1)NC(=O)c1ccc(C(F)(F)F)cc1 [Compound 23, (S)-3-Benzyloxy-2-[3-biphenyl-4-yl-2-(4-trifluoromethylbenzoylamino)-acryloylamino]propionic acid] | 29 µM | –
O=C(N[C@@H](COCc1ccccc1)C(=O)O)/C(=C\c1ccc(Cl)c(Cl)c1)NC(=O)c1ccc(-c2ccccc2)cc1 [Compound 26, (S)-3-Benzyloxy-2-[2-[(biphenyl-4-carbonyl)amino]-3-(3,4-dichlorophenyl)-acryloylamino]propionic acid] | 24 µM | –
O=C(N[C@H](COCc1ccccc1)C(=O)O)/C(=C\c1ccc(Cl)c(Cl)c1)NC(=O)c1ccc(OC(F)(F)F)cc1 [Compound 30, (R)-3-Benzyloxy-2-[3-(3,4-dichlorophenyl)-2-(4-trifluoromethoxybenzoylamino)-acryloylamino]propionic acid] | 54 µM | –
Cc1ccc(/C=C(/NC(=O)c2ccc(-c3ccccc3)cc2)C(=O)NC(C(=O)O)C(C)(C)S)o1 (centres unmarked) [Compound 94] | – | 55.2 µM
CC(C)(S)C(NC(=O)/C(=C\c1cccc(C(F)(F)F)c1)NC(=O)c1ccc(-c2ccccc2)cc1)C(=O)O (centres unmarked) [Compound 95] | – | 14.1 µM
O=C(O)CCCCNC(=O)/C(=C\c1cccc(C(F)(F)F)c1)NC(=O)c1ccc(-c2ccccc2)cc1 [Compound 99] | – | 42 µM
O=C(NC(CCSCc1ccccc1)C(=O)O)/C(=C\c1ccc(Cl)cc1Cl)NC(=O)c1ccc(-c2ccccc2)cc1 (centres unmarked) [Compound 104] | – | 3.8 µM
O=C(N/C(=C/c1ccc(Cl)c(Cl)c1)C(=O)N1CCCCC1C(=O)O)c1ccc(-c2ccccc2)cc1 (centres unmarked) [Compound 107] | – | 8 µM
NC(=O)C[C@@H](NC(=O)/C(=C\c1ccc(Cl)c(Cl)c1)NC(=O)c1ccc(-c2ccccc2)cc1)C(=O)O [Compound 112] | – | 16.6 µM
O=C(O)CCCCNC(=O)/C(=C\c1ccc(Cl)c(Cl)c1)NC(=O)c1ccc(-c2ccccc2)cc1 [Compound 113] | – | 14.5 µM

Compound | IC50 [1] | IC50 [2]
O=C(NC1(C(=O)O)CCCCC1)/C(=C\c1ccc(Cl)c(Cl)c1)NC(=O)c1ccc(-c2ccccc2)cc1 [Compound 114] | – | 7.3 µM
CC(C)(S)C(NC(=O)/C(=C\c1ccc(Cl)c(Cl)c1)NC(=O)c1ccccc1)C(=O)O (centres unmarked) [Compound 115] | – | 61.6 µM
COc1cccc(C(=O)N/C(=C/c2ccc(Cl)c(Cl)c2)C(=O)NC(Cc2ccc(Cl)cc2)C(=O)O)c1 (centres unmarked) [Compound 117] | – | 15.5 µM
O=C(N/C(=C/c1cccc(C(F)(F)F)c1)C(=O)N1CCCCC1C(=O)O)c1ccc(C(F)(F)F)cc1 (centres unmarked) [Compound 118] | – | 100 µM
CC(C)(S)C(NC(=O)/C(=C\c1ccc(Cl)c(Cl)c1)NC(=O)c1ccc(C(F)(F)F)cc1)C(=O)O (centres unmarked) [Compound 120] | – | 22.7 µM
CC(C)(S)C(NC(=O)/C(=C\c1ccc(C(F)(F)F)cc1)NC(=O)c1ccc(-c2ccccc2)cc1)C(=O)O (centres unmarked) [Compound 124] | – | 16 µM
CCc1ccc(/C=C(/NC(=O)c2ccc(-c3ccccc3)cc2)C(=O)NC(C(=O)O)C(C)(C)S)cc1 (centres unmarked) [Compound 125] | – | 20 µM
CC(C)(S)C(NC(=O)/C(=C\c1ccc(-c2ccccc2)cc1)NC(=O)c1ccc(-c2ccccc2)cc1)C(=O)O (centres unmarked) [Compound 126] | – | 3 µM
CC(C)(S)C(NC(=O)/C(=C\c1cccc(Oc2ccccc2)c1)NC(=O)c1ccc(-c2ccccc2)cc1)C(=O)O (centres unmarked) [Compound 127] | – | 10 µM
O=C(O)CCCCNC(=O)/C(=C\c1ccc(-c2ccccc2)cc1)NC(=O)c1ccc(C(F)(F)F)cc1 [Compound 132] | – | 42 µM
O=C(NC1(C(=O)O)CCCCC1)/C(=C\c1ccc(-c2ccccc2)cc1)NC(=O)c1ccc(C(F)(F)F)cc1 [Compound 135] | – | 50 µM
Cc1ccccc1/C=C(/NC(=O)c1ccc(C(F)(F)F)cc1)C(=O)N[C@@H](CSCc1ccccc1)C(=O)O [Compound 138] | – | 100 µM
O=C(N/C(=C/c1ccc(-c2ccccc2)cc1)C(=O)N1CCCCC1C(=O)O)c1ccc(C(F)(F)F)cc1 (centres unmarked) [Compound 147] | – | 60 µM
O=C(N[C@@H](CSCc1ccccc1)C(=O)O)/C(=C\c1ccccc1Cl)NC(=O)c1ccc(C(F)(F)F)cc1 [Compound 151] | – | 50 µM
NC(=O)C[C@@H](NC(=O)/C(=C\c1ccc(-c2ccccc2)cc1)NC(=O)c1ccc(C(F)(F)F)cc1)C(=O)O [Compound 152] | – | 100 µM
CC(C)(S)C(NC(=O)/C(=C\c1cccc(Oc2ccccc2)c1)NC(=O)c1ccc(C(F)(F)F)cc1)C(=O)O (centres unmarked) [Compound 160] | – | 16 µM
Cc1ccc(C(=O)N/C(=C/c2ccc(Cl)c(Cl)c2)C(=O)NC(C(=O)O)C(C)(C)S)cc1 (centres unmarked) [Compound 161] | – | 56 µM
